Source: patent US11180468B2, “Prodrugs of urolithins and uses thereof” (Amazentis SA, priority 2013, dated 2021)
Structures can show the parent of a compound that is named as a salt. Where two headings read alike, the source gives them in different places.

Key:
[1] = Solubility in phosphate buffer at pH 4 at room temperature, filtered solution analysed by HPLC against DMSO standard; type: physicochemical; settings: phosphate buffer pH 4, room temperature; for solubility: aqueous buffer, thermodynamic from solid
Protocol: (§1) All HPLC analyses were carried out on a 5 μL sample on an Agilent 1100 series HPLC system including HPLC pump, auto injector, column oven and PDA detector with a Waters XBridgeC18, 50×2.1 mm, 5 μm column at a temperature of 40° C. and a flow rate of 0.4 mL/min using the following gradient: […]
A maximum amount of each compound was dissolved in 400 μL of phosphate buffer at pH 4 at room temperature in a filter vial (Agilent 0.45 μm PP Mini-UniPrep™). The filtered solutions were analysed by HPLC as described above. The peak area of the substance dissolved in buffer was compared to that of a standard prepared in DMSO.

[2] = Stability (degradation) in aqueous phosphate buffer solution at room temperature, HPLC percentage remaining; type: physicochemical
Protocol: as §1
The stability of the compounds in aqueous solution at room temperature was measured by dissolving the compounds in phosphate buffer of a pH chosen from 2, 3, 4, and/or 5. The compounds with low water solubility were first dissolved in DMSO and then diluted with phosphate buffer to contain 10% of DMSO. The samples were analysed by HPLC, as described above, at time 0 and several times thereafter. The peak area of the samples at these times were compared to the areas at t=0 to calculate the percentage remaining of the starting compound.
The solutions were prepared for each of the compounds as set out in Table 8. Plots of the percentage remaining of starting substance over time for each of the compounds measured are given in FIGS. 1-6, and t50 values (time taken for 50% of the starting compound to degrade) are given in Table 8.

[3] = Oral bioavailability: plasma concentration of Urolithin after oral administration to rats; type: in vivo, Sprague-Dawley rats; settings: rat
Protocol: The oral bioavailability of compounds of the invention can be assessed by orally administering a dose of compound in solution to Sprague-Dawley rats. Blood samples are collected from each rat before administration, and at intervals up to 24 hours thereafter. The blood samples are analysed for the plasma concentration of Urolithin. […] The Urolithin A was still present in the blood at a concentration of 2.6 mg/ml at 12 hours following administration in the case of the saline solution, and 1.30 mg/ml in the case of the DMSO/water solution. The Cmax and AUC of Urolithin A were higher when the compound of Example 4 was orally administered than when Urolithin A was orally administered.

[4] = Urolithin A compounds, molar basis, read-out: Solubility (mM/L)
[5] = Urolithin A compounds, read-out: Solubility
[6] = Urolithin B compounds, molar basis, read-out: Solubility (mM/L)
[7] = Urolithin B compounds, read-out: Solubility

SMILES: CC(N)C(=O)Oc1ccc2c(c1)oc(=O)c1cc(OC(=O)[C@@H](C)N)ccc12 (stereo in doubt) [Example 2, 8-{[(2R)-2-Aminopropanoyl]oxy}-6-oxo-6H-benzo[c]chromen-3-yl (2S)-2-aminopropanoate dihydrochloride]
- solubility [1, 4]: 4.86 mM
- solubility [1, 5]: 1800 µg/mL
- t50 (mins), time taken for 50% of the starting compound to degrade ([2]; pH 4, 0.33 mg in 0.66 mL (second time), FIG. 2): 31 min
- t50 (mins), time taken for 50% of the starting compound to degrade ([2]; pH 4, 0.72 mg in 0.4 mL, FIG. 2): 56 min
- t50 (mins), time taken for 50% of the starting compound to degrade ([2]; pH 4, 0.94 mg in 1.8 mL (first time), FIG. 2): 29 min

SMILES: CC(C)CC(N)C(=O)Oc1ccc2c(c1)oc(=O)c1cc(OC(=O)[C@H](N)CC(C)C)ccc12 (stereo in doubt) [Example 4, 8-{[(2R)-2-Amino-4-methylpentanoyl]oxy}-6-oxo-6H-benzo[c]chromen-3-yl (2S)-2-amino-4-methylpentanoate dihydrochloride]
- AUC of Urolithin A compared with oral administration of Urolithin A [3]: higher
- Cmax of Urolithin A compared with oral administration of Urolithin A [3]: higher
- Delivery of Urolithin A into the blood following oral administration, compared with oral Urolithin A [3]: at least as effectively
- solubility [1, 4]: 4.73 mM
- solubility [1, 5]: 2150 µg/mL
- Solubility compared in words [1]: particularly soluble compared to the parent compound
- Degradation rate compared in words ([2]; at pH 4): degrades more slowly than Example 3
- t50 (mins), time taken for 50% of the starting compound to degrade ([2]; pH 4, 0.4 mg in 1 mL, FIG. 4): 405 min

SMILES: NCC(=O)Oc1ccc2c(c1)oc(=O)c1cc(OC(=O)CN)ccc12 [Example 1, 8-[(2-Aminoacetyl)oxy]-6-oxo-6H-benzo[c]chromen-3-yl 2-aminoacetate dihydrochloride]
- solubility [1, 4]: 5.64 mM
- solubility [1, 5]: 1930 µg/mL
- Solubility compared in words [1]: more soluble than the Glycine urolithin B compound (Example 3)
- Degradation rate compared in words ([2]; at pH 4): degrades more slowly than Example 2
- t50 (mins), time taken for 50% of the starting compound to degrade ([2]; pH 2, 0.16 mg in 1 mL, FIG. 5): 81 min
- t50 (mins), time taken for 50% of the starting compound to degrade ([2]; pH 4, 0.77 mg in 1 mL, FIG. 1): 74 min
- t50 (mins), time taken for 50% of the starting compound to degrade ([2]; pH 5, 0.16 mg in 1 mL, FIG. 5): 27 min

SMILES: NCC(=O)Oc1ccc2c(c1)oc(=O)c1ccccc12 [Example 3, 6-Oxo-6H-benzo[c]chromen-3-yl 2-aminoacetate hydrochloride]
- solubility [1, 6]: 4.94 mM
- solubility [1, 7]: 1330 µg/mL
- Degradation rate compared in words ([2]; at pH 4): degrades more slowly than Example 1
- t50 (mins), time taken for 50% of the starting compound to degrade ([2]; pH 4, 0.31 mg in 1 mL, FIG. 3): 156 min

SMILES: CC(C)C[C@H](N)C(=O)Oc1ccc2c(c1)oc(=O)c1ccccc12 [Example 5, 6-Oxo-6H-benzo[c]chromen-3-yl (2S)-2-amino-4-methylpentanoate hydrochloride]
- Degradation rate compared in words ([2]; at pH 2 and pH 5): degrades more slowly than Example 1
- t50 (mins), time taken for 50% of the starting compound to degrade ([2]; pH 2, 0.2 mg in 1 mL, FIG. 6): 240 min
- Increase in the rate of degradation when the pH of the solution is increased from 2 to 5 ([2]; pH 2 to pH 5): two-fold
- t50 (mins), time taken for 50% of the starting compound to degrade ([2]; pH 5, 0.3 mg in 1 mL, FIG. 6): 125 min

SMILES: O=c1oc2cc(O)ccc2c2ccc(O)cc12 [Urolithin A, reference compound]
- solubility [1, 4]: 0.00057 mM
- solubility [1, 5]: 0.13 µg/mL

SMILES: O=c1oc2cc(O)ccc2c2ccccc12 [Urolithin B, reference compound]
- solubility [1, 6]: 0.00127 mM
- solubility [1, 7]: 0.27 µg/mL
